Laboratory results taken from publication PMC10854894, “A New Benzo[6,7]oxepino[3,2-b] Pyridine Derivative Induces Apoptosis in Canine Mammary Cancer Cell Lines” (Animals : an Open Access Journal from MDPI, 2024).

What was measured:
Assay type in all cases: cell-based, canine
[1] = test system: CMGT071020 cells; experiment: Morphological analysis, phase-contrast microscopy; settings: CMGT071020, 50, 100 or 200 µM, 48 h
Description: (§1) To investigate the morphological changes of the two CMC cell lines during the treatment with MPOBA, they were cultured in a 6-well plate at a density of 2 × 10^5 cells/well and allowed to incubate for 24 h until they reached 70–80% confluence. They were subsequently treated with MPOBA at varying concentrations from 0 to 200 µM for 48 h. Images of the cells were captured using a phase-contrast inverted microscope (Nikon, Tokyo, Japan) at 40× magnification.

[2] = test system: REM134 cells; experiment: Morphological analysis, phase-contrast microscopy; settings: REM134, 50, 100 or 200 µM, 48 h
Description: as §1

[3] = test system: CMGT071020 cells; experiment: Immunohistochemistry of vimentin and cytokeratin, Allred score; settings: CMGT071020, 0-200 µM, 48 h, treatment vs control
Description: (§2) The cells were cultured in a T-25 cell culture flask (SPL life science, Gyeonggi-do, Republic of Korea) at a density of 2 × 10^5 cells/well and allowed to incubate for 24 h until they reached 60–70% confluence. They were subsequently treated with MPOBA at varying concentrations from 0 to 200 µM for 48 h. After treatment, cells were harvested using TrypLE and subjected to centrifugation at 1200 rpm for 5 min to obtain cell pellets. Then, the supernatant was replaced with 10% formalin, and the cell pellets were fixed overnight. The fixed cell pellets were embedded in paraffin blocks and sectioned with a thickness of 3 μm. These slide sections were then subjected to the deparaffinization and rehydration processes. For antigen retrieval, a heat-induced method was adopted, utilizing a vegetable steamer in a citrate buffer (pH = 6) at 90–100 °C for 45 min, followed by a cooling period of 30 min. After these preparatory steps, slides were mounted on cover plates within a Sequenza slide rack (Thermo Scientific, Waltham, MA, USA), void of air bubbles, and filled with Tris-buffered saline (TBS) (pH = 7.6). The immunohistochemical detection employed a Novolink™ Polymer Detection Kit (Leica Biosystems, Newcastle, UK) according to the manufacturer’s instructions. This began with the inhibition of endogenous peroxidase activity with a 150 μL peroxidase block at room temperature for 5 min, followed by washing with TBS three times for 3 min each. Subsequently, a 150 μL protein block was applied, incubated for 5 min, and washed three times with TBS for 3 min. Primary antibodies, including a vimentin (VT) mouse anti-human monoclonal antibody (Clone V9, ready-to-use kit, Leica Biosystems, Newcastle, UK) and a multi-cytokeratin (CK) mouse antibody (Clone AE1/AE3, ready-to-use kit, Leica Biosystems, Newcastle, UK), were incubated at 37 °C for 1 h. […]
(§3) A quantitative evaluation of the stained slides was performed utilizing the Allred scoring method and QuPath bioimaging software version 0.4.4 [48] to mitigate potential biases. […] The positive cells were systematically detected using the “positive cell detection” command in the analyze menu. The Allred score was calculated according to the quantity of marked cells and the intensity of the staining, as shown in Table S1. […] The scores and criteria used to quantify the labeled cells were 0, no labeling; 1, labeling in <1% of cells; 2, labeling in 1–10% of cells; 3, labeling in 11–33% of cells; 4, labeling in 34–66% of cells; and 5, labeling in 67–100% of cells. […] The staining intensity was determined visually. The sum of these criteria for each sample determined the final score.

[4] = test system: REM134 cells; experiment: as above; settings: REM134, 0-200 µM, 48 h, treatment vs control
Description: as §2, §3

[5] = test system: CMGT071020 cells; experiment: Annexin V-FITC/PI apoptosis assay, flow cytometry; settings: 48 h; for percentage of total apoptosis: untreated 5.97%
Description: (§4) The mode of cell death induced by MPOBA was evaluated using FITC Annexin V apoptosis detection kit I (BD Bioscience, San Jose, CA, USA) according to the manufacturer’s protocols. The REM134 and CMGT071020 cell lines were seeded at a density of 2 × 10^4 cells/well in a 12-well plate and allowed to grow for 24 h (60% confluency) prior to treatment with MPOBA at concentrations ranging from 0 to 200 µM for 48 h. After the incubation period, all adhering and floating cells were harvested and transferred into sterile centrifuge tubes. The cells were centrifuged at 400× g for 5 min at room temperature. The supernatant was aspirated, leaving approximately 50 µL of residual fluid in the tubes to avoid disturbing the pellets. FITC Annexin V (5 µL) and PI (5 µL) were added to the tubes containing cell pellets. The mixtures were gently vortexed and incubated for 15 min at room temperature in the dark. A binding buffer (400 µL) was added to each tube. A total of 20,000 events were acquired for each sample using a CytoFLEX flow cytometer (Beckman Coulter, Miami, FL, USA) within an hour. […] The experiment was performed with four replicates. The positive control was doxorubicin-treated CMC cells, while the negative control was 0.1% DMSO-treated CMC cells.

[6] = test system: REM134 cells; experiment: Annexin V-FITC/PI apoptosis assay, flow cytometry; settings: 48 h; for percentage of total apoptosis: untreated 5.14%
Description: as §4

Cc1ncccc1Oc1ccccc1C=O [MPOBA, 2-((2-methylpyridin-3-yl)oxy)benzaldehyde]
cell morphology [1]: reduced in cell size, cell shrinkage, rounding, vacuolation, and a loss of cell-to-cell adhesion
cell morphology [2]: reduced in cell size, cell shrinkage, rounding, vacuolation, and a loss of cell-to-cell adhesion
cytokeratin (CK) expression, Allred score [3]: no statistically significant difference
vimentin (VT) expression, Allred score [3]: no statistically significant difference
cytokeratin (CK) expression, Allred score [4]: no statistically significant difference
vimentin (VT) expression, Allred score [4]: no statistically significant difference
percentage of total apoptosis ([5]; CMGT071020, 100 µM): 21.88%
percentage of total apoptosis ([5]; CMGT071020, 200 µM): 27.07%
viability at 50 µM ([5]; Canis lupus familiaris, CMGT071020, 50 μM, Figure 7A plot, read-out: viable cells): 80.6%
viability at 100 µM ([5]; Canis lupus familiaris, CMGT071020, 100 μM, Figure 7A plot, read-out: viable cells): 72.9%
viability at 200 µM ([5]; Canis lupus familiaris, CMGT071020, 200 μM, Figure 7A plot, read-out: viable cells): 63.4%
viability at 50 µM ([6]; Canis lupus familiaris, REM134, 50 μM, Figure 7A plot, read-out: viable cells): 84.1%
viability at 100 µM ([6]; Canis lupus familiaris, REM134, 100 μM, Figure 7A plot, read-out: viable cells): 75.5%
viability at 200 µM ([6]; Canis lupus familiaris, REM134, 200 μM, Figure 7A plot, read-out: viable cells): 69.6%
percentage of total apoptosis ([6]; REM134, 100 µM): 23.6%
percentage of total apoptosis ([6]; REM134, 200 µM): 28.75%
